According to patent US20250163104A1, “MACROCYCLIC IMMUNOMODULATORS” (priority 2021, published 2025):
*1 amine or outer side, *2 acyl side, *3 side chain or, on linkers, in order; H or OH if unused. Where a SMILES comes first, the peptide text is derived from it. Bridges are numbered along the chain shown (N, C = ends). [ ]: non-standard residue; d: D form. The star is where a group is joined. ξ: configuration not given here. Phe(3-CH2NH2) = O=C([C@H](Cc1cccc(CN[*:3])c1)N[*:1])[*:2]; Phe(3-CF3) = N[C@@H](Cc1cccc(C(F)(F)F)c1)C(=O)O; Phe(4-CF3) = N[C@@H](Cc1ccc(C(F)(F)F)cc1)C(=O)O; Ala(morpholin-4-yl) = N[C@@H](CN1CCOCC1)C(=O)O; Phe(4-COOH) = N[C@@H](Cc1ccc(C(=O)O)cc1)C(=O)O; Bip = N[C@@H](Cc1ccc(-c2ccccc2)cc1)C(=O)O; Phe(4-Br) = N[C@@H](Cc1ccc(Br)cc1)C(=O)O; Phe(3-Me) = Cc1cccc(C[C@H](N)C(=O)O)c1; ξLys(N3) = [N-]=[N+]=NCCCCC(N)C(=O)O; Val(3-OH) = CC(C)(O)[C@H](N)C(=O)O; hArg = N=C(N)NCCCC[C@H](N)C(=O)O; 4Pal = N[C@@H](Cc1ccncc1)C(=O)O; Cha = N[C@@H](CC1CCCCC1)C(=O)O; Cit = NC(=O)NCCC[C@H](N)C(=O)O; Thr(3ξ) = CC(O)[C@H](N)C(=O)O; dNle = CCCC[C@@H](N)C(=O)O; dDab = NCC[C@@H](N)C(=O)O; Carboxymethyl = O=C(O)C*; Orn = NCCC[C@H](N)C(=O)O; Dab = NCC[C@H](N)C(=O)O; Dap = NC[C@H](N)C(=O)O; Propargyl = C#CC*

Target: T1, human PD-1 / PD-L1-Ig binding on Jurkat cell line over-expressing human PD-1 (Jurkat-PD-1) (Homo sapiens, UniProt Q15116)
T1 construct: expressed in transfected cells; host or cells: Jurkat
T1 sequence (Q15116 25-288): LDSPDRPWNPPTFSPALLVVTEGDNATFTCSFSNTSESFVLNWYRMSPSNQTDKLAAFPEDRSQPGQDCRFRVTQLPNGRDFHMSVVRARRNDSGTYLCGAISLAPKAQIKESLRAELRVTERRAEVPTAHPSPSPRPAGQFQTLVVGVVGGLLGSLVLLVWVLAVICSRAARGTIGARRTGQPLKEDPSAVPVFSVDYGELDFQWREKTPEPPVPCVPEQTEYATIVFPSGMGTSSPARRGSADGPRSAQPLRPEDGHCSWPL
Test: Jurkat-PD-1 Cell Binding High-Content Screening Assay (CBA)
Format: cell-based
Conditions: Jurkat-PD-1 cells, PE-labeled PD-L1-Ig 20 nM final; read-out: Jurkat HPD1_PDL1 IC50
Description: Example 3. Jurkat-PD-1 Cell Binding High-Content Screening Assay (CBA)
Jurkat-PD-1 Cell Binding High-Content Screening Assay (CBA). Phycoerythrin (PE) was covalently linked to the Ig epitope tag of human PD-L1-Ig and fluorescently-labeled PD-L1-Ig was used for binding studies with a Jurkat cell line over-expressing human PD-1 (Jurkat-PD-1). Briefly, 8×10^3 Jurkat-hPD-1 cells were seeded into 384 well plates in 20 μl of DMEM supplemented with 10% fetal calf serum. 100 nL of compound was added to cells followed by incubation at 37° C. for 2 h. Then, 5 μl of PE-labeled PD-L1-Ig (20 nM final), diluted in DMEM supplemented with 10% fetal calf serum. After 1 hour incubation, cells were fixed with 4% paraformaldehyde in dPBS containing 10 μg/ml Hoechst 33342 and then washed 3x in 100 μl dPBS. Data was collected and processed using a Cell Insight NXT High Content Imager and associated software.

IC50 [nM] | Structure (SMILES)
15.6 | CC[C@H](C)[C@@H]1NC(=O)[C@H](Cc2ccc(-c3ccccc3)cc2)NC(=O)[C@H](C(C)C)NC(=O)[C@H](Cc2cccc(C)c2)NC(=O)[C@H](CC(=O)O)NC(=O)[C@H](Cc2ccc(OCC(=O)O)cc2)NC(=O)[C@H](Cc2ccncc2)NC(=O)CSC[C@@H](C(=O)N[C@@H](C)C(N)=O)NC(=O)[C@H]([C@@H](C)O)NC(=O)[C@H](C(C)C)NC(=O)[C@H](CC2CCCCC2)NC(=O)[C@H](CCN)NC(=O)[C@@H](CC(C)C)NC(=O)[C@H](CCCN)NC1=O [Compound 1198]
8.7 | CC(C)C[C@H]1NC(=O)[C@H](CCCN)NC(=O)[C@H](CCCNC(N)=O)NC(=O)[C@H](Cc2ccc(-c3ccccc3)cc2)NC(=O)[C@H](C(C)C)NC(=O)[C@H](Cc2c[nH]c3ccccc23)NC(=O)[C@H](CC(=O)O)NC(=O)[C@H](Cc2cccnc2)NC(=O)[C@H](CN)NC(=O)CSC[C@@H](C(=O)N[C@@H](C)C(N)=O)NC(=O)[C@H]([C@@H](C)O)NC(=O)[C@H](C(C)C)NC(=O)[C@H](CC2CCCCC2)NC(=O)[C@H](CCN)NC1=O [Compound 2094]
12.8 | CCCC[C@H]1NC(=O)[C@H](CCCN)NC(=O)[C@H]([C@@H](C)CC)NC(=O)[C@H](Cc2ccc(-c3ccccc3)cc2)NC(=O)[C@H](C(C)C)NC(=O)[C@H](Cc2c[nH]c3ccccc23)NC(=O)[C@H](CC(=O)O)NC(=O)[C@H](Cc2ccncc2)NC(=O)[C@H](CN)NC(=O)CSC[C@@H](C(=O)N[C@@H](C)C(N)=O)NC(=O)[C@H]([C@@H](C)O)NC(=O)[C@H](C(C)C)NC(=O)[C@H](CC2CCCCC2)NC(=O)[C@H](CCN)NC1=O [Compound 1711] ({CH2CO}-[Dap][4Pal]DWV[Bip]I[Orn][dNle][Dab][Cha]VTCA-NH2; thioether N-14)
163 | CC(C)C[C@H]1NC(=O)[C@H](CCCN)NC(=O)[C@H](CCC(=O)O)NC(=O)[C@H](Cc2ccc(-c3ccccc3)cc2)NC(=O)[C@H](C(C)C)NC(=O)[C@H](Cc2c[nH]c3ccccc23)NC(=O)[C@H](CC(=O)O)NC(=O)[C@H](Cc2ccc(OCC(=O)O)cc2)NC(=O)[C@H](CN)NC(=O)CSC[C@@H](C(=O)N[C@@H](C)C(N)=O)NC(=O)[C@H]([C@@H](C)O)NC(=O)[C@H](C(C)C)NC(=O)[C@H](Cc2cccc(CN)c2)NC(=O)[C@H](CCN)NC1=O [Compound 1508] ({CH2CO}-[Dap]Y(Carboxymethyl)DWV[Bip]E[Orn][dL][Dab][Phe(3-CH2NH2)]VTCA-NH2; thioether N-14)
10.5 | Cc1cccc(C[C@@H]2NC(=O)[C@H](CC(=O)O)NC(=O)[C@H](Cc3ccc(OCC(=O)O)cc3)NC(=O)[C@H](CN)NC(=O)CSC[C@@H](C(=O)N[C@@H](CCN)C(N)=O)NC(=O)[C@@H](CCN)NC(=O)[C@H](C(C)C)NC(=O)[C@H](CC3CCCCC3)NC(=O)[C@H](CCN)NC(=O)[C@@H](CC(C)C)NC(=O)[C@H](CCCN)NC(=O)[C@H](Cc3ccc(O)cc3)NC(=O)[C@H](Cc3ccc(-c4ccccc4)cc3)NC(=O)[C@H](Cc3ccc(O)cc3)NC2=O)c1 [Compound 2045] ({CH2CO}-[Dap]Y(Carboxymethyl)D[Phe(3-Me)]Y[Bip]Y[Orn][dL][Dab][Cha]V[dDab]C[Dab]-NH2; thioether N-14)
6.8 | Cc1cccc(C[C@@H]2NC(=O)[C@H](CC(=O)O)NC(=O)[C@H](Cc3ccc(OCC(=O)O)cc3)NC(=O)[C@H](Cc3ccc(C(F)(F)F)cc3)NC(=O)CSC[C@@H](C(=O)N[C@@H](CCN)C(N)=O)NC(=O)[C@H](CCC(=O)O)NC(=O)[C@H](C(C)(C)O)NC(=O)[C@H](CC3CCCCC3)NC(=O)[C@H](CCN)NC(=O)[C@@H](CC(C)C)NC(=O)[C@H](CCCN)NC(=O)[C@H](Cc3ccc(OCC(=O)O)cc3)NC(=O)[C@H](Cc3ccc(-c4ccccc4)cc3)NC(=O)[C@H](Cc3ccc(OCC(=O)O)cc3)NC2=O)c1 [Compound 2691] ({CH2CO}-[Phe(4-CF3)]Y(Carboxymethyl)D[Phe(3-Me)]Y(Carboxymethyl)[Bip]Y(Carboxymethyl)[Orn][dL][Dab][Cha][Val(3-OH)]EC[Dab]-NH2; thioether N-14)
26 | CC(C)C[C@H]1NC(=O)[C@H](CCCN)NC(=O)[C@H](CN)NC(=O)[C@H](Cc2ccc(-c3ccccc3)cc2)NC(=O)[C@H](C(C)C)NC(=O)[C@H](Cc2c[nH]c3ccccc23)NC(=O)[C@H](CC(=O)O)NC(=O)[C@H](Cc2ccncc2)NC(=O)[C@H](CN)NC(=O)CSC[C@@H](C(=O)N[C@@H](C)C(N)=O)NC(=O)[C@H]([C@@H](C)O)NC(=O)[C@H](C(C)C)NC(=O)[C@H](CC2CCCCC2)NC(=O)[C@H](CCN)NC1=O [Compound 1388]
8.5 | Cc1cccc(C[C@@H]2NC(=O)[C@H](CC(=O)O)NC(=O)[C@H](Cc3ccc(C(=O)O)cc3)NC(=O)[C@H](Cc3ccncc3)NC(=O)CSC[C@@H](C(=O)N[C@@H](C)C(N)=O)NC(=O)[C@H]([C@@H](C)O)NC(=O)[C@H](C(C)C)NC(=O)[C@H](CC3CCCCC3)NC(=O)[C@H](CCN)NC(=O)[C@@H](CC(C)C)NC(=O)[C@H](CCCN)NC(=O)[C@H](C3CC3)NC(=O)[C@H](Cc3ccc(-c4ccccc4)cc3)NC(=O)[C@H](C(C)C)NC2=O)c1 [Compound 1617]
135 | C#CCOc1ccc(C[C@@H]2NC(=O)[C@H](CN)NC(=O)CSC[C@@H](C(=O)NC(CCCCN=[N+]=[N-])C(N)=O)NC(=O)[C@H]([C@@H](C)O)NC(=O)[C@H](C(C)C)NC(=O)[C@H](CC3CCCCC3)NC(=O)[C@H](CCN)NC(=O)[C@@H](CC(C)C)NC(=O)[C@H](CCCN)NC(=O)[C@H](CCC(=O)O)NC(=O)[C@H](Cc3ccc(-c4ccccc4)cc3)NC(=O)[C@H](C(C)C)NC(=O)[C@H](Cc3c[nH]c4ccccc34)NC(=O)[C@H](CC(=O)O)NC2=O)cc1 (stereo partly drawn) [Compound 1538] ({CH2CO}-[Dap]Y(Propargyl)DWV[Bip]E[Orn][dL][Dab][Cha]VTC[ξLys(N3)]-NH2; thioether N-14)
3.9 | Cc1cccc(C[C@@H]2NC(=O)[C@H](CC(=O)O)NC(=O)[C@H](Cc3ccc(OCC(=O)O)cc3)NC(=O)[C@H](CCCCNC(=N)N)NC(=O)CSC[C@@H](C(=O)N[C@@H](CO)C(=O)N[C@@H](CCCCN)C(N)=O)NC(=O)[C@H](CO)NC(=O)[C@H](C(C)C)NC(=O)[C@H](CC3CCCCC3)NC(=O)[C@H](CCN)NC(=O)[C@@H](CC(C)C)NC(=O)[C@H](CCCN)NC(=O)[C@H](CCCNC(N)=O)NC(=O)[C@H](Cc3ccc(-c4ccccc4)cc3)NC(=O)[C@H](C(C)C)NC2=O)c1 [Compound 2593] ({CH2CO}-[hArg]Y(Carboxymethyl)D[Phe(3-Me)]V[Bip][Cit][Orn][dL][Dab][Cha]VSCSK-NH2; thioether N-14)
200 | CC(C)C[C@H]1NC(=O)[C@H](CCCN)NC(=O)[C@H](Cc2ccc(C(=O)O)cc2)NC(=O)[C@H](Cc2ccc(-c3ccccc3)cc2)NC(=O)[C@H](Cc2ccc(Br)cc2)NC(=O)[C@H](Cc2cccc(C(F)(F)F)c2)NC(=O)[C@H](CC(=O)O)NC(=O)[C@H](Cc2ccc(C(=O)O)cc2)NC(=O)[C@H](CN2CCOCC2)NC(=O)CSC[C@@H](C(=O)N[C@@H](CCN)C(N)=O)NC(=O)[C@H](CCC(=O)O)NC(=O)[C@H](C(C)C)NC(=O)[C@H](CC2CCCCC2)NC(=O)[C@H](CCN)NC1=O [Example 2750] ({CH2CO}-[Ala(morpholin-4-yl)][Phe(4-COOH)]D[Phe(3-CF3)][Phe(4-Br)][Bip][Phe(4-COOH)][Orn][dL][Dab][Cha]VEC[Dab]-NH2; thioether N-14)
24.5 | CCCC[C@H]1NC(=O)[C@H](CCCN)NC(=O)[C@H](CCCNC(N)=O)NC(=O)[C@H](Cc2ccc(-c3ccccc3)cc2)NC(=O)[C@H](C(C)C)NC(=O)[C@H](Cc2c[nH]c3ccccc23)NC(=O)[C@H](CC(=O)O)NC(=O)[C@H](Cc2ccc(OCC(=O)O)cc2)NC(=O)[C@H](Cc2ccncc2)NC(=O)CSC[C@@H](C(=O)N[C@@H](C)C(N)=O)NC(=O)[C@H]([C@@H](C)O)NC(=O)[C@H](C(C)C)NC(=O)[C@H](CC2CCCCC2)NC(=O)[C@H](CCN)NC1=O [Compound 1701]
6.2 | Cc1cccc(C[C@@H]2NC(=O)[C@H](CC(=O)O)NC(=O)[C@H](Cc3ccc(OCC(=O)O)cc3)NC(=O)[C@H](Cc3ccncc3)NC(=O)CSC[C@@H](C(=O)NCC(N)=O)NC(=O)[C@H](CO)NC(=O)[C@H](C(C)C)NC(=O)[C@H](CC(C)C)NC(=O)[C@H](CCN)NC(=O)[C@@H](CC(C)C)NC(=O)[C@H](CCCN)NC(=O)[C@H](C(C)C)NC(=O)[C@H](Cc3ccc(-c4ccccc4)cc3)NC(=O)[C@H](CC(C)C)NC2=O)c1 [Compound 1263] ({CH2CO}-[4Pal]Y(Carboxymethyl)D[Phe(3-Me)]L[Bip]V[Orn][dL][Dab]LVSCG-NH2; thioether N-14)
18.9 | Cc1cccc(C[C@@H]2NC(=O)[C@H](CC(=O)O)NC(=O)[C@H](Cc3ccc(OCC(=O)O)cc3)NC(=O)[C@H](C(C)O)NC(=O)CSC[C@@H](C(N)=O)NC(=O)[C@H](C(C)O)NC(=O)[C@H](C(C)C)NC(=O)[C@H](CC3CCCCC3)NC(=O)[C@H](CCN)NC(=O)[C@@H](CC(C)C)NC(=O)[C@H](CCCN)NC(=O)[C@H](C(C)C)NC(=O)[C@H](Cc3ccc(-c4ccccc4)cc3)NC(=O)[C@H](C(C)C)NC2=O)c1 (stereo partly drawn) [Compound 2605] ({CH2CO}-[Thr(3ξ)]Y(Carboxymethyl)D[Phe(3-Me)]V[Bip]V[Orn][dL][Dab][Cha]V[Thr(3ξ)]C-NH2; thioether N-14)
